Results: US10487045B2, “Adamantane derivative and use thereof” (TOHOKU UNIVERSITY, priority 2016, dated 2019)

Legend:
[1] = system: Kir6.1 defective mice administered with corticosterone; experiment: Anxiety-related behavioral tests in Kir6.1 defective mice administered with corticosterone; assay type: in vivo; settings: Kir6.1 defective mice + corticosterone; TP-014 1 mg/kg oral once a day for 2 weeks
Description: Using WT mice (C57BL/6J, Japan SLC, two months old) administered with corticosterone (dose of 5 mg/kg was administered once a day for 2 weeks); and Kir6.1 defective mice administered with corticosterone, as disease model mice showing anxiety-like symptoms, five behavioral tests regarding anxiety-related behavior were conducted. Note that, the Kir6.1 defective mice were obtained from Professor Susumu Seino, School of Medicine of Kobe University (Miki T et al., Nature Medicine 2002, 8, 466-472).
To the WT mice and Kir6.1 defective mice administered with corticosterone, TP-014 (1 mg/kg) was administered via the oral route once a day for 2 weeks (chronic treatment). As a result, it was confirmed that a significant anxiety symptom acceleration improving effect was obtained. […]
The time until a mouse placed in a black box (dark place) feels anxiety to light and comes out of the box to a bright place) was measured. […]
In the cage for housing a mouse is filled with wood chip bedding and 20 marbles are placed such that a mouse can see them. […] The number of marbles buried and hidden in the wood chip bedding is counted. […]
Using the same test apparatus as in the light/dark test method, a mouse is placed in a dark place, and then, sound (treble) is produced for 30 seconds and thereafter electrical stimulation is given for 3 seconds. […] The immobility time of the mouse is measured. […]

[2] = system: APP23 mice; experiment: Aβ aggregation in brain slices, staining with 6E10 and thioflavin; assay type: in vivo; settings: APP23 mice (14 months old), chronic treatment, brain slice sections
Source text: The hypothesis that amyloid-β (Aβ) is a cause of Alzheimer's disease has now still important. AP aggregation, which occurs in APP23 mice (14 months old) was confirmed by immunostaining. The brains of a WT (control mouse) and APP23 mouse were cut into slice sections of 50 micrometers in thickness. The slice sections were stained with 6E10 (Aβ antibody, manufactured by Abeam) and thioflavin. The conditions other than the above were the same as in the ordinary immunostaining method. […] In contrast, aggregation was not virtually observed in the hippocampus (CA1). Aβ aggregation was inhibited by TP-014 chronic treatment.

SMILES: O=C(N[C@@H](c1ccccc1)[C@H]1[C@H]2C[C@@H]3C[C@](Cl)(C2)C[C@@]1(OC(=O)C(F)(F)F)C3)C(F)(F)F [TP-014, (1S,2R,3S,5S,7S)-5-chloro-2-((R)-phenyl(2,2,2-trifluoroacetamido)methyl)adamantan-1-yl 2,2,2-trifluoroacetate]
- anxiety-like symptoms [1]: no improvement effect
- Aβ aggregation [2]: inhibited
